Measurements taken from patent US20100137305A1, “AMINOPYRIMIDINES USEFUL AS KINASE INHIBITORS” (VERTEX PHARMACEUTICALS INCORPORATED, priority 2008, published 2010).
Where two headings read alike, the source gives them in different places.

Columns and labels:
[1] = test system: Colo205 cells; assay: Analysis of Cell Proliferation, 3H thymidine incorporation; type: cell-based; details: Homo sapiens
Procedure, shortened: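 Serially diluted compound added in duplicate to Colo205 cells, 0.1% DMSO diluent control, incubated 72 or 96 hrs at 37C, 5% CO2. 0.5 μCi 3H thymidine added 3 h before end; incorporated radioactivity counted by beta-counter and dose-response curves fitted.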

[2] = target: Aurora-1 (Aurora B) (Homo sapiens, UniProt Q96GD4); assay: Aurora-1 (Aurora B) Inhibition Assay (radiometric); type: biochemical; details: 800 μM ATP; read-out: Aurora B kinase activity Ki
Aurora-1 (Aurora B), sequence (Q96GD4 whole entry): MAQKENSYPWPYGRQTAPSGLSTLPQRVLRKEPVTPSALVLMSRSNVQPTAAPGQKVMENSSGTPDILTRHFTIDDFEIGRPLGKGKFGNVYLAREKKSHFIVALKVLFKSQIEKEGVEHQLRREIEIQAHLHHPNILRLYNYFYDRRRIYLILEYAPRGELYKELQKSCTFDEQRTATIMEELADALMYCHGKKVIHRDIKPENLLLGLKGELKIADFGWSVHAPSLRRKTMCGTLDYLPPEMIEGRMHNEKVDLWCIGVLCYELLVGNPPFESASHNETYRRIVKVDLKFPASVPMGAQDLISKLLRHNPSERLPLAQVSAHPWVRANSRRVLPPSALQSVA
Procedure, shortened: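 Enzyme at 22 nM in solution with 1.5 mM Kemptide (LRRASLG) in 25 mM HEPES pH 7.5, 10 mM MgCl2, 0.1% BSA, 10% glycerol, 1.7 mM DTT. Compound pre-equilibrated 10 min at 25° C, then [γ-33P]-ATP added at 800 μM final for 3 h. 33P peptide incorporation by phosphocellulose capture and scintillation counting. Ki from initial rates by non-linear regression.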

[3] = target: T1, Aurora-2 (Aurora A) (Homo sapiens, UniProt O14965); assay: Aurora-2 (Aurora A) Inhibition Assay, coupled enzyme assay; type: biochemical; details: 400 μM ATP, 30° C.; read-out: Aurora A kinase activity Ki
T1 sequence (O14965 1-403): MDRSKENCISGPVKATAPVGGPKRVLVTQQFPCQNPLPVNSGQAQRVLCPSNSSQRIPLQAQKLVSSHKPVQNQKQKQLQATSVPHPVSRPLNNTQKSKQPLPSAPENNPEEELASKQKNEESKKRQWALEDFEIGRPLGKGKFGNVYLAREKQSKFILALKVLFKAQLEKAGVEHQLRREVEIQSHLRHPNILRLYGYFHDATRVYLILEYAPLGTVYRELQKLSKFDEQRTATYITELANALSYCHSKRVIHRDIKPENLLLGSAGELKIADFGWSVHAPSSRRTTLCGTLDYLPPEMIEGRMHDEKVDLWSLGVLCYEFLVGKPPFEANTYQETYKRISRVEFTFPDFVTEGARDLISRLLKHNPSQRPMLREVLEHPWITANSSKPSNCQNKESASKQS
Procedure, shortened: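 Coupled pyruvate kinase/LDH assay (NADH read-out) with 40 nM Aurora-2, 400 μM ATP and 570 μM Kemptide in 100 mM Hepes pH 7.5, 10 mM MgCl2, at 30 °C. Compound preincubated 10 min (serial dilutions typically from 7.5 μM final); initial rates over 10 min, IC50 and Ki by non-linear regression.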

[4] = target: T2, T315I mutant of human Abl (Homo sapiens, UniProt P00519, T315I); assay: Mutant Abl Kinase (T315I) Activity Inhibition Assay (Upstate, radiometric); type: biochemical
T2 construct: purchased Upstate Cell Signaling Solutions (Dundee, UK)

[5] = target: N-terminally truncated (Δ 27) Abl kinase (Homo sapiens, UniProt P00519); assay: Abl Kinase Activity Inhibition Assay, coupled enzyme system; type: biochemical; details: 110 μM ATP, 30° C.
Procedure: Compounds were screened for their ability to inhibit N-terminally truncated (Δ 27) Abl kinase activity using a standard coupled enzyme system (Fox et al., Protein Sci., 7, pp. 2249 (1998)). Reactions were carried out in a solution containing 100 mM HEPES (pH 7.5), 10 mM MgCl2, 25 mM NaCl, 300 μM NADH, 1 mM DTT and 3% DMSO. Final substrate concentrations in the assay were 110 μM ATP (Sigma Chemicals, St Louis, Mo.) and 70 μM peptide (EAIYAAPFAKKK, American Peptide, Sunnyvale, Calif.). Reactions were carried out at 30° C. and 21 nM Abl kinase. Final concentrations of the components of the coupled enzyme system were 2.5 mM phosphoenolpyruvate, 200 μM NADH, 60 μg/ml pyruvate kinase and 20 μg/ml lactate dehydrogenase.
An assay stock buffer solution was prepared containing all of the reagents listed above with the exception of ATP and the test compound of interest. The assay stock buffer solution (60 μl) was incubated in a 96 well plate with 2 μl of the test compound of interest at final concentrations typically spanning 0.002 μM to 30 μM at 30° C. for 10 min. Typically, a 12 point titration was prepared by serial dilutions (from 1 mM compound stocks) with DMSO of the test compounds in daughter plates. The reaction was initiated by the addition of 5 μl of ATP (final concentration 110 μM). Rates of reaction were obtained using a Molecular Devices Spectramax plate reader (Sunnyvale, Calif.) over 10 min at 30° C. The Ki values were determined from the residual rate data as a function of inhibitor concentration using nonlinear regression (Prism 3.0, Graphpad Software, San Diego, Calif.).

[6] = COLO 205, 96 h, 96 hours, read-out: IC50 cell proliferation after 96 hours
[7] = COLO 205, 72 h, 72 hours, read-out: IC50 cell proliferation after 72 hours

Structure (SMILES) | IC50 [1, 6] [nM] | Ki [2] [nM] | Ki [3] [nM] | Ki [4] [nM] | Ki [5] [nM] | IC50 [1, 7] [nM]
CCC(=O)Nc1ccc(Sc2nc(Nc3cc(C)n[nH]3)cc(N3CCC(F)C3)n2)cc1 (centres unmarked) [Compound I-18] | 50 to 200 | 10 to 50 | ≤ 10 | 200 to 500 | < 25 | –
CCC(=O)Nc1ccc(Sc2nc(Nc3cc(C)n[nH]3)cc(N3CCC(C(C)(C)O)CC3)n2)cc1 [Compound I-42] | ≤ 50 | 10 to 50 | ≤ 10 | 200 to 500 | 25 to 100 | –
Cc1cc(Nc2cc(N3CCC(O)CC3)nc(Sc3ccc(NC(=O)CC(F)(F)F)cc3)n2)[nH]n1 [Compound I-80] | – | ≤ 10 | ≤ 10 | < 200 | 25 to 100 | 25 to 125
Cc1cc(Nc2cc(N3CC4CCCN(C)C4C3)nc(Sc3ccc(NC(=O)CC(F)(F)F)cc3)n2)[nH]n1 (centres unmarked) [Compound I-69, 3,3,3-trifluoro-N-(4-(4-(3-methyl-1H-pyrazol-5-ylamino)-6-(1-methyltetrahydro-1H-pyrrolo[3,4-b]pyridin-6(2H,7H,7aH)-yl)pyrimidin-2-ylthio)phenyl)propanamide] | – | ≤ 10 | ≤ 10 | < 200 | 25 to 100 | ≤ 25
Cc1cnc(Nc2cc(N3CC[C@@H](N(C)C)C3)nc(Sc3ccc(NC(=O)C4CC4)cc3)n2)s1 [Compound I-29] | 50 to 200 | 10 to 50 | ≤ 10 | < 200 | < 25 | –
Cc1cc(Nc2cc(N3CCC(F)C3)nc(Sc3ccc(NC(=O)CCC(F)(F)F)cc3)n2)[nH]n1 (centres unmarked) [Compound I-81] | – | 10 to 50 | ≤ 10 | < 200 | 25 to 100 | 25 to 125
Cc1cc(Nc2cc(N3CCC(N4CCCC4)CC3)nc(Sc3ccc(NC(=O)C4(C(F)(F)F)CC4)cc3)n2)[nH]n1 [Compound I-65] | – | 10 to 50 | ≤ 10 | < 200 | 25 to 100 | ≤ 25
